This is an account of results in patent US20210323977A1, “PYRROLIDINYL AMIDE COMPOUNDS FOR THE TREATMENT OF AUTOIMMUNE DISEASE” (Hoffmann-La Roche Inc., priority 2018, published 2021).

Molecules are shown by their SMILES.

For the assay, the target named is T1, human TLR8 (Homo sapiens, UniProt Q9NR97).
T1 sequence (Q9NR97 27-1041): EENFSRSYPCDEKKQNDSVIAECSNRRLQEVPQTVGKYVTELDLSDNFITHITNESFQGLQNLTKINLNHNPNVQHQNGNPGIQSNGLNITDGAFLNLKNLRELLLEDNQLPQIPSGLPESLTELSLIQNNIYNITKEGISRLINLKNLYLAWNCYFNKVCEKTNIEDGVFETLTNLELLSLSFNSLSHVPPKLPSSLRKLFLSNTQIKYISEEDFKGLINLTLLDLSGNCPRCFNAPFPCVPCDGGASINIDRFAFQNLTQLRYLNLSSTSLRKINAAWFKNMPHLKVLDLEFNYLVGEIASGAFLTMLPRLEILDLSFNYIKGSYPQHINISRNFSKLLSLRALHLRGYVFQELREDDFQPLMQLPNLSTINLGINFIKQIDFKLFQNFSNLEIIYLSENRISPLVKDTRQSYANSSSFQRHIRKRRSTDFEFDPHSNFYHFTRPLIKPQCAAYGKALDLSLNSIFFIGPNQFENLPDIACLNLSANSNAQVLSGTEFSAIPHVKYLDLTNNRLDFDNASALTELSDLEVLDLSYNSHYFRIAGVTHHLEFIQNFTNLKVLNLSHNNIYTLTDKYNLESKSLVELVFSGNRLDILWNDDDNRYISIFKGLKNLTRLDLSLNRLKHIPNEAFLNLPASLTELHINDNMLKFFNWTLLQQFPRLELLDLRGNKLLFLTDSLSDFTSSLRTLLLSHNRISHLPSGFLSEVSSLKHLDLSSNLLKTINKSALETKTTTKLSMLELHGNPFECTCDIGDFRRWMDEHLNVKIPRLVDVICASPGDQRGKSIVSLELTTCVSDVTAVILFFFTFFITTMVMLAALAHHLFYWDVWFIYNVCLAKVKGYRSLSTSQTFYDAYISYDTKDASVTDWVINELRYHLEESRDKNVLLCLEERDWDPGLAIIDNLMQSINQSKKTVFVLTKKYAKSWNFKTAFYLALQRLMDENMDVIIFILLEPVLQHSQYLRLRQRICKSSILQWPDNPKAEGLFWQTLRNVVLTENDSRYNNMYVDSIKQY
Briefly: HEK293-Blue-hTLR-8 cells assay. It is filed as cell-based. The conditions noted are these: HEK293-Blue-hTLR8 cells, SEAP reporter, R848 stimulation, 20 hrs. From the text: HEK293-Blue-hTLR-8 Cells Assay:
A stable HEK293-Blue-hTLR-8 cell line was purchased from InvivoGen (Cat. #: hkb-htlr8, San Diego, Calif., USA). These cells were originally designed for studying the stimulation of human TLR8 by monitoring the activation of NF-κB. A SEAP (secreted embryonic alkaline phosphatase) reporter gene was placed under the control of the IFN-β minimal promoter fused to five NF-κB and AP-1-binding sites. The SEAP was induced by activating NF-κB and AP-1 via stimulating HEK-Blue hTLR8 cells with TLR8 ligands. Therefore the reporter expression was declined by TLR8 antagonist under the stimulation of a ligand, such as R848, for incubation of 20 hrs. The cell culture supernatant SEAP reporter activity was determined using QUANTI-Blue™ kit (Cat. #: rep-qb1, Invivogen, San Diego, Ca, USA) at a wavelength of 640 nm, a detection medium that turns purple or blue in the presence of alkaline phosphatase.
HEK293-Blue-hTLR8 cells were incubated at a density of 250,000-450,000 cells/mL in a volume of 170 μL in a 96-well plate in Dulbecco's Modified Eagle's medium (DMEM) containing 4.5 g/L glucose, 50 U/mL penicillin, […], […], 2 mM L-glutamine, 10% (v/v) heat-inactivated fetal bovine serum with addition of 20 μL test compound in a serial dilution in the presence of final DMSO at 1% and 10 sL of 60 uM R848 in above DMEM, perform incubation under 37° C. in a CO2 incubator for 20 hrs. Then 20 μL of the supernatant from each well was incubated with 180 sL Quanti-blue substrate solution at 37° C. for 2 hrs and the absorbance was read at 620˜655 nm using a spectrophotometer. The signalling pathway that TLR8 activation leads to downstream NF-κB activation has been widely accepted, and therefore similar reporter assay was modified for evaluating TLR8 antagonist.
On to `N#Cc1ccc(N2CC(C(=O)NC[C@H]3CNCCO3)C3(CC3)C2)c2nccnc12` (single isomer, unassigned) [Example 70A], for which the IC50 – broadly, the point on the concentration scale where inhibition reaches its midpoint – was 34 nM. On to `N#Cc1ccc(N2CC(C(=O)NC[C@@H]3CNCCO3)C3(CC3)C2)c2nccnc12` (single isomer, unassigned) [Example 71B], for which it took 134 nM to reach half-maximal inhibition (IC50). For `CN1CCC(NC(=O)C2CN(c3ccc(C(F)(F)F)c4nccnc34)CC23CC3)CC1` (stereo not shown) [Example 11, N-(1-methyl-4-piperidyl)-5-[8-(trifluoromethyl)quinoxalin-5-yl]-5-azaspiro[2.4]heptane-7-carboxamide] the value was 30 nM.

Compound `CN1CC(NC(=O)C2CN(c3ccc(C(F)(F)F)c4nccnc34)CC23CC3)C2(CC2)C1` (stereo not shown) [Example 20, N-(5-methyl-5-azaspiro[2.4]heptan-7-yl)-5-[8-(trifluoromethyl)quinoxalin-5-yl]-5-azaspiro[2.4]heptane-7-carboxamide] returned an IC50 of 369 nM. For `C[C@@H]1CN(c2ccc(C#N)c3ncccc23)C[C@H]1C(=O)N1CCC2(CCNCC2)CC1` (relative stereo) [Example 32, Trans-5-[3-(3,9-diazaspiro[5.5]undecane-3-carbonyl)-4-methyl-pyrrolidin-1-yl]quinoline-8-carbonitrile] the value was 213 nM. For `C[C@H]1CN(c2ccc(C(F)(F)F)c3nccnc23)C[C@@H]1C(=O)NC1CCN(C)CC1` [Example 5, (3R,4R)-4-methyl-N-(1-methyl-4-piperidyl)-1-[8-(trifluoromethyl)quinoxalin-5-yl]pyrrolidine-3-carboxamide] the value was 11 nM. In turn, `C[C@@H]1CN(c2ccc(C#N)c3ncccc23)C[C@H]1C(=O)N[C@H]1CNC[C@H]1F` [Example 56, Trans-1-(8-cyano-5-quinolyl)-N-[(3S,4R)-4-fluoropyrrolidin-3-yl]-4-methyl-pyrrolidine-3-carboxamide] yielded an IC50 of 373 nM.

On to `C[C@H]1CN(c2ccc(C#N)c3nccnc23)C[C@@H]1C(=O)NC1CCN(C2CCNCC2)CC1` [Example 60, (3R,4R)-1-(8-cyanoquinoxalin-5-yl)-4-methyl-N-[1-(4-piperidyl)-4-piperidyl]pyrrolidine-3-carboxamide], for which the midpoint of inhibition, the IC50, lay at 48 nM.

`C[C@H]1CN(c2ccc([N+](=O)[O-])c3ncccc23)C[C@@H]1C(=O)NC1CCN(C)CC1` [Example 27, (3R,4R)-4-Methyl-N-(1-methyl-4-piperidyl)-1-(8-nitro-5-quinolyl)pyrrolidine-3-carboxamide]: the IC50 came out at 52 nM.

`NC1CC(NC(=O)C2CN(c3ccc(C(F)(F)F)c4nccnc34)CC23CC3)C1` (stereo not shown) [Example 38, N-(3-Aminocyclobutyl)-5-[8-(trifluoromethyl)quinoxalin-5-yl]-5-azaspiro[2.4]heptane-7-carboxamide] registered an IC50 of 172 nM. For `O=C(NC1C2CCCC1CNC2)C1CN(c2ccc(C(F)(F)F)c3nccnc23)CC12CC2` (stereo not shown) [Example 8, N-(3-azabicyclo[3.3.1]nonan-9-yl)-5-[8-(trifluoromethyl)quinoxalin-5-yl]-5-azaspiro[2.4]heptane-7-carboxamide] the value was 216 nM; for `N#Cc1ccc(N2CC(C(=O)NC3CCCNCC3)C(C(F)(F)F)C2)c2cccnc12` (single isomer, unassigned) [Example 30A, N-(azepan-4-yl)-1-(8-cyano-5-quinolyl)-4-(trifluoromethyl)pyrrolidine-3-carboxamide], 67 nM. As to `NC1CC2(C1)CC(NC(=O)C1CN(c3ccc(C(F)(F)F)c4nccnc34)CC13CC3)C2` (stereo not shown) [Example 22, N-(6-aminospiro[3.3]heptan-2-yl)-5-[8-(trifluoromethyl)quinoxalin-5-yl]-5-azaspiro[2.4]heptane-7-carboxamide], the IC50 is 65 nM. The result for `Cc1ccc(N2C[C@H](C(=O)NC3CCN(C)CC3)[C@@H](C)C2)c2nccnc12` [Example 33, (3R,4R)-4-Methyl-N-(1-methyl-4-piperidyl)-1-(8-methylquinoxalin-5-yl)pyrrolidine-3-carboxamide] reads 75 nM; that for `O=C(NC1CC2(CCNCC2)C1)C1CN(c2ccc(C(F)(F)F)c3nccnc23)CC12CC2` (stereo not shown) [Example 34, N-(7-azaspiro[3.5]nonan-2-yl)-5-[8-(trifluoromethyl)quinoxalin-5-yl]-5-azaspiro[2.4]heptane-7-carboxamide], 437 nM; that for `CN1CCC(NC(=O)C2CN(c3ccc(C#N)c4ncccc34)CC23CC3)CC1` (single isomer, unassigned) [Example 41A, 5-(8-Cyano-5-quinolyl)-N-(1-methyl-4-piperidyl)-5-azaspiro[2.4]heptane-7-carboxamide], 191 nM.

`C[C@@H]1CN(c2ccc(C#N)c3ncccc23)C[C@H]1C(=O)N1CCC2(CCNC2)C1` (relative stereo) [Example 53, Trans-5-[3-(2,7-diazaspiro[4.4]nonane-2-carbonyl)-4-methyl-pyrrolidin-1-yl]quinoline-8-carbonitrile] displayed an IC50 of 225 nM. For `CN1CCC(NC(=O)C2CN(c3ccc(C#N)c4ncccc34)CC2C(F)(F)F)CC1` (stereo not shown) [Example 18, 1-(8-Cyano-5-quinolyl)-N-(1-methyl-4-piperidyl)-4-(trifluoromethyl)pyrrolidine-3-carboxamide] the value was 75 nM. Compound `O=C(NC1CC2COCC(C1)N2)C1CN(c2ccc(C(F)(F)F)c3nccnc23)CC12CC2` (stereo not shown) [Example 6, N-(3-oxa-9-azabicyclo[3.3.1]nonan-7-yl)-5-[8-(trifluoromethyl)quinoxalin-5-yl]-5-azaspiro[2.4]heptane-7-carboxamide] gave an IC50 of 291 nM. The result for `N[C@H]1CC[C@H](NC(=O)C2CN(c3ccc(C(F)(F)F)c4nccnc34)CC23CC3)CC1` (stereo partly shown) [Example 24, N-(4-aminocyclohexyl)-5-[8-(trifluoromethyl)quinoxalin-5-yl]-5-azaspiro[2.4]heptane-7-carboxamide] reads 175 nM; that for `CN1CCC(NC(=O)[C@@H]2CN(c3ccc(C#N)c4ncccc34)C[C@H]2C2CC2)CC1` (relative stereo) [Example 14, Trans-1-(8-cyano-5-quinolyl)-4-cyclopropyl-N-(1-methyl-4-piperidyl)pyrrolidine-3-carboxamide], 193 nM.

The compound `CN1CCC(NC(=O)[C@@H]2CN(c3ccc(C#N)c4ncccc34)C[C@H]2C(F)F)CC1` (relative stereo) [Example 40, Trans-1-(8-cyano-5-quinolyl)-4-(difluoromethyl)-N-(1-methyl-4-piperidyl)pyrrolidine-3-carboxamide] gave an IC50 of 134 nM. For `CC[C@@H]1CN(c2ccc(C#N)c3ncccc23)C[C@H]1C(=O)NC1CCN(C)CC1` (relative stereo) [Example 29, Trans-1-(8-cyano-5-quinolyl)-4-ethyl-N-(1-methyl-4-piperidyl)pyrrolidine-3-carboxamide] the value was 96 nM; for `O=C(NC1CC2CCCC(C1)N2)C1CN(c2ccc(C(F)(F)F)c3nccnc23)CC12CC2` (stereo not shown) [Example 10, N-(9-azabicyclo[3.3.1]nonan-3-yl)-5-[8-(trifluoromethyl)quinoxalin-5-yl]-5-azaspiro[2.4]heptane-7-carboxamide], 245 nM. As to `N#Cc1ccc(N2CC(C(=O)NC[C@H]3CNCCO3)C3(CC3)C2)c2nccnc12` (single isomer, unassigned) [Example 70B], half-maximal inhibition (IC50) required 168 nM.
